≈ marks a conversion by molar mass, not a printed value. Where a SMILES comes first, the peptide text is derived from it. Bridges are numbered along the chain shown (N, C = ends). The star is where a group is joined. Palmitoyl = CCCCCCCCCCCCCCCC(=O)*
Experiments:
Type in all cases: cell-based
[1] = test system: Candida albicans ATCC 10231; details: ATCC 10231, 24 h
Procedure: (§1) The Staphylococcus aureus ATCC 25923, Staphylococcus epidermidis ATCC 14990, Escherichia coli ATCC 25922, Pseudomonas aeruginosa ATCC 9027, Candida albicans ATCC 10231, Candida glabrata ATCC 15126, Candida lipolytica PCM 2680-FY, and Candida tropicalis PCM 2709-FY strains were acquired from the Polish Collection of Microorganisms (PCM, Polish Academy of Sciences, Wrocław, Poland) and from the American Type Culture Collection (ATCC). All the strains were stored at −80 °C in Roti-Store cryo vials and before the tests were transferred into fresh Mueller–Hinton broth (MHB, Biocorp, Warsaw, Poland) for bacteria or RPMI-1640 (Sigma-Aldrich, Steinheim, Germany) for fungi and incubated for 24 h at 37 °C. Then, the cultures were seeded on Mueller–Hinton agar (BioMaxima, Lublin, Poland) or Sabouraud dextrose agar (SDA, BioMaxima, Lublin, Poland) plates, respectively, and incubated as just mentioned. These agar cultures were used for further microbiological assays. Cell densities for all assays were adjusted spectrophotometrically (Multiskan GO Microplate Spectrophotometer, Thermo Fisher Scientific, Vantaa, Finland) at 600 and 660 nm for bacteria and fungi, respectively.
(§2) MBECs were determined on 96-well polystyrene flat-bottom plates. For this purpose, 24 h cultures of microorganisms were diluted to obtain final density 5.0 × 10^5 CFU/mL and 2.0 × 10^5 CFU/mL of bacteria and fungi, respectively. Briefly, 100 µL of cell suspension was added into the test plates. After 24 h of incubation at 37 °C the wells were rinsed three times with a phosphate buffer saline (PBS, pH 7.4) to remove non-adherent cells. Subsequently, 100 μL of the test compounds in concentration range (0.5–256 μg/mL) were added to each well. After 24 h of incubation at 37 °C, 20 μL of a cell viability reagent was added (resazurin, 4 g/L; Sigma Aldrich, St. Louis, MO, USA). The MBEC was read after 1 h. The determined values were recorded as the lowest concentration at which the reduction of resazurin (from blue to pink) was lower or equal to 10 ± 0.5% as compared to the positive (100%) and negative (0%) controls. The reduction was monitored by measuring absorbance at 570 nm (reduced) and 600 nm (oxidized) using a microplate spectrophotometer (Multiskan GO Microplate Spectrophotometer, Thermo Fisher Scientific, Vantaa, Finland). All experiments were conducted in triplicate.

[2] = test system: Staphylococcus epidermidis ATCC 14990; details: ATCC 14990, 24 h
Procedure: as §1, §2

[3] = test system: Pseudomonas aeruginosa ATCC 9027; details: ATCC 9027, 24 h
Procedure: as §1, §2

[4] = test system: Escherichia coli ATCC 25922; details: ATCC 25922, 24 h
Procedure: as §1, §2

[5] = test system: Candida albicans ATCC 10231; details: ATCC 10231, 24 h; remark: listed apart in the source
Procedure: as §1
(§3) The assay was performed to evaluate the effect of the lipopeptides in preventing biofilm formation. The preparation of inoculums was followed by a ca. 500-fold dilution of the 24 h cultures of microorganisms. Briefly, 50 μL of the compounds in the concentration range, diluted in appropriate medium, were prepared on 96-well polystyrene flat-bottom plates. Subsequently, the 50 μL of the bacterial/fungal inoculums were added to reach the same microbial density as that in the MBEC assay. After 24 h of incubation at 37 °C, the wells were rinsed three times with PBS and the fresh media with resazurin (4 g/L) were added. The MBICs were read after 1 h. All experiments were conducted in triplicate.

[6] = test system: Staphylococcus epidermidis ATCC 14990; details: ATCC 14990, 24 h; remark: listed apart in the source
Procedure: as §1, §3

[7] = test system: Candida lipolytica PCM 2680-FY; details: 24 h
Procedure: as §1, §3

[8] = test system: Pseudomonas aeruginosa ATCC 9027; details: ATCC 9027, 24 h; remark: listed apart in the source
Procedure: as §1, §3

[9] = test system: Candida tropicalis PCM 2709-FY; details: PCM 2709-FY, 24 h
Procedure: as §1, §3

[10] = test system: Escherichia coli ATCC 25922; details: ATCC 25922, 24 h; remark: listed apart in the source
Procedure: as §1, §3

[11] = test system: Staphylococcus aureus ATCC 25923; details: ATCC 25923, 24 h
Procedure: as §1, §3

[12] = test system: Candida glabrata ATCC 15126; details: ATCC 15126, 24 h
Procedure: as §1, §3

[13] = test system: human red blood cells (hRBCs); experiment: Hemolysis assay; details: peptide concentration causing 50% hemolysis; 4% (v/v) hRBCs in PBS, 1 h, 37 °C, absorbance 540 nm, triplicate
Procedure: The hemolysis assay was performed by using the method reported previously. Fresh human red blood cells (hRBCs) with anticoagulant (EDTA) were rinsed three times with a PBS by centrifugation at 800× g for 10 min and diluted with PBS. The lipopeptides were serially diluted on a 96-well microtiter polystyrene plate and hRBCs were added up to a final volume of 100 μL. The peptide concentration ranged between 0.5 and 256 μg/mL and the final hRBCs concentration was 4% (v/v). Controls for zero hemolysis (blank) and 100% hemolysis consisted of hRBCs suspended in PBS and 1% of Triton-X 100, respectively. The plate was incubated for 1 h at 37 °C and then centrifuged (800× g, 10 min, 4 °C). Subsequently, the supernatant was […] to new microtiter plates and the absorbance at 540 nm was measured. All experiments were conducted in triplicate. HC50 was calculated using an ic50.tk tool. Protocol of the study received approval from the local Bioethics Committee at the Medical University of Gdańsk (NKBBN/262/2019, approval date: 10 June 2019).

[14] = test system: Candida albicans ATCC 10231; details: ATCC 10231, 24 h; remark: listed apart in the source
Procedure: as §1
(§4) The MICs were determined by broth microdilution method according to the Clinical and Laboratory Standard Institute guidelines For this purpose, initial inoculums of bacteria (5 × 10^5 CFU/mL) in MHB and yeasts (2 × 10^3 CFU/mL) in RPMI-1640 with 2% D-glucose were exposed to the ranging concentration of lipopeptides (0.5–256 μg/mL) and incubated at 37 °C for 18 h and 24 h, respectively. The experiments were conducted on 96-well microtiter polystyrene plates. The growth was assessed visually after incubation and the MIC was assumed as the lowest peptide concentration at which a noticeable growth of microorganisms was inhibited. All experiments were conducted in triplicate.

[15] = test system: Pseudomonas aeruginosa ATCC 9027; details: ATCC 9027, 18 h
Procedure: as §1, §4

Row | Compound | MBEC C. albicans [1] [µg/mL] | MBEC S. epidermidis [2] [µg/mL] | MBEC P. aeruginosa [3] [µg/mL] | MBEC E. coli [4] [µg/mL] | MBIC C. albicans [5] [µg/mL] | MBIC S. epidermidis [6] [µg/mL] | MBIC C. lipolytica [7] [µg/mL] | MBIC P. aeruginosa [8] [µg/mL] | MBIC C. tropicalis [9] [µg/mL] | MBIC E. coli [10] [µg/mL] | MBIC S. aureus [11] [µg/mL] | MBIC C. glabrata [12] [µg/mL] | HC50 [13] [µg/mL] | MIC C. albicans [14] [µg/mL] | MIC P. aeruginosa [15] [µg/mL]
1 | CCCCCCCCCCCCCCCC(=O)N[C@@H](CCCNC(=N)N)C(=O)N[C@@H](CCCNC(=N)N)C(=O)N[C@@H](CCCCN)C(=O)N[C@@H](CCCCN)C(N)=O [L7, C16-RRKK-NH2] (Palmitoyl-RRKK-NH2) | 64 | 64 | 256 | 256 | 32 | 16 | 16 | 64 | 8 | 32 | 16 | 32 | 65.4 ± 1.5 | 32 (≈ 38.8 µM) | 64 (≈ 77.7 µM)
2 | CCCCCCCCCCCCCCCC(=O)N[C@H]1CSSC[C@@H](C(N)=O)NC(=O)[C@H](CCCNC(=N)N)NC(=O)[C@H](CCCCN)NC(=O)[C@H](CCCCN)NC(=O)[C@H](CCCCN)NC1=O [C6, C16-CKKKRC-NH2] (Palmitoyl-CKKKRC-NH2; disulfide 1-6) | 64 | 128 | >256 | >256 | 16 | 8 | 8 | 64 | 8 | 64 | 32 | 8 | 71.0 ± 6.4 | 4 (≈ 4 µM) | 128 (≈ 128 µM)
3 | CCCCCCCCCCCCCCCC(=O)N[C@@H](CCCCN)C(=O)N[C@@H](CCCCN)C(=O)N[C@@H](CCCCN)C(N)=O [L1, C16-KKK-NH2] | 256 | 32 | 128 | 64 | 128 | 16 | 32 | 32 | 16 | 32 | 32 | 128 | 90.0 ± 6.5 | 32 (≈ 50 µM) | 64 (≈ 100 µM)
4 | CCCCCCCCCCCCCCCC(=O)N[C@H]1CSSC[C@@H](C(N)=O)NC(=O)[C@H](CCCCN)NC(=O)[C@H](CCCNC(=N)N)NC(=O)[C@H](CCCCN)NC(=O)[C@H](CCCCN)NC1=O [C5, C16-CKKRKC-NH2] (Palmitoyl-CKKRKC-NH2; disulfide 1-6) | 64 | 64 | 256 | 128 | 16 | 16 | 8 | 64 | 8 | 32 | 32 | 16 | 97.0 ± 15.4 | 16 (≈ 16 µM) | 256 (≈ 256 µM)
5 | CCCCCCCCCCCCCCCC(=O)N[C@H]1CSSC[C@@H](C(N)=O)NC(=O)[C@H](CCCCN)NC(=O)[C@H](CCCCN)NC(=O)[C@H](CCCCN)NC(=O)[C@H](CCCNC(=N)N)NC1=O [C3, C16-CRKKKC-NH2] (Palmitoyl-CRKKKC-NH2; disulfide 1-6) | 32 | 128 | 256 | 256 | 8 | 8 | 2 | 64 | 4 | 64 | 16 | 8 | 66.5 ± 14.8 | 2 (≈ 2 µM) | 
6 | CCCCCCCCCCCCCCCC(=O)N[C@H]1CSSC[C@@H](C(N)=O)NC(=O)[C@H](CCCCN)NC(=O)[C@H](CCCCN)NC(=O)[C@H](CCCNC(=N)N)NC(=O)[C@H](CCCNC(=N)N)NC1=O [C7, C16-CRRKKC-NH2] (Palmitoyl-CRRKKC-NH2; disulfide 1-6) | 64 | 64 | 256 | 256 | 16 | 16 | 8 | 128 | 8 | 128 | 16 | 16 | 92.0 ± 9.6 | 16 (≈ 15.6 µM) | 256 (≈ 249 µM)
